# Measured values from publication PMC6393422, “Novel Chitohexaose Analog Protects Young and Aged mice from CLP Induced Polymicrobial Sepsis” (Scientific Reports, 2019).
# Target: TLR4 (toll-like receptor 4) (Homo sapiens, UniProt O00206)
# Assay: TLR4 ELISA on lysates of human PBMCs treated with AVR-25 for […] h, dose response
# Type: cell-based
# Sequence of TLR4 (toll-like receptor 4) (O00206 24-839): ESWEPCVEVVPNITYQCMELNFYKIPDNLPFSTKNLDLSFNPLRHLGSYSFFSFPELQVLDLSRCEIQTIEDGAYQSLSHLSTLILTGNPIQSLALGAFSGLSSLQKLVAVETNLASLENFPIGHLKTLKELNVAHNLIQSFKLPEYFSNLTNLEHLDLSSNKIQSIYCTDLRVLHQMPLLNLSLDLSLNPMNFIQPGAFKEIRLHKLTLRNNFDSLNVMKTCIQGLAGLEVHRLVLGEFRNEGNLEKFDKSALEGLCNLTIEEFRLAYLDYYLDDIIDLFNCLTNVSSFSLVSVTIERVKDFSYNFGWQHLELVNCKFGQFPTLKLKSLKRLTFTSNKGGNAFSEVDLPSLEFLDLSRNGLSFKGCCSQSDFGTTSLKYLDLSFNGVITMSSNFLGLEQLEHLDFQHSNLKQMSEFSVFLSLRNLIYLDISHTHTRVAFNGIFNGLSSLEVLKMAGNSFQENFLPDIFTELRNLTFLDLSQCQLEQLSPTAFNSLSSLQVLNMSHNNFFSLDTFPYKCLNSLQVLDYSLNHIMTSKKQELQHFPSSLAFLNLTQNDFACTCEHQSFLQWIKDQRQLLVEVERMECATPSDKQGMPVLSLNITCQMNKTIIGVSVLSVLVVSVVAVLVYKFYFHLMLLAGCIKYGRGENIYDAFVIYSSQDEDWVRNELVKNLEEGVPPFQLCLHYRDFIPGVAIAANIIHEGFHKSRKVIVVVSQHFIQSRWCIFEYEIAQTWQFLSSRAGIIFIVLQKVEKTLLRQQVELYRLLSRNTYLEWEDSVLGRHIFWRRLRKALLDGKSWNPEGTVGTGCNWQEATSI
compound,measurement,value
"CC(=O)N[C@H]1[C@H](OC2CCCCC2)O[C@H](CO)[C@@H](O[C@@H]2O[C@H](CO)[C@@H](O)[C@H](O)[C@H]2NC(C)=O)[C@@H]1O [AVR-25, N-((2R,3R,4R,5S,6R)-5-(((2S,3R,4R,5S,6R)-3-acetamido-4,5-dihydroxy-6-(hydroxymethyl)tetrahydro-2H-pyran-2-yl)oxy)-2-(cyclohexyloxy)-4-hydroxy-6-(hydroxymethyl)tetrahydro-2H-pyran-3-yl)acetamide]",IC50,150 nM
